Assay [1] deals with T1, TBK1 (Homo sapiens, UniProt Q9UHD2).
T1 construct: purchased Promega (Invitrogen is also named in the same bracket) V4158; PR8031B; V3991 (not assigned to the two kinases)
T1 sequence (Q9UHD2 1-729): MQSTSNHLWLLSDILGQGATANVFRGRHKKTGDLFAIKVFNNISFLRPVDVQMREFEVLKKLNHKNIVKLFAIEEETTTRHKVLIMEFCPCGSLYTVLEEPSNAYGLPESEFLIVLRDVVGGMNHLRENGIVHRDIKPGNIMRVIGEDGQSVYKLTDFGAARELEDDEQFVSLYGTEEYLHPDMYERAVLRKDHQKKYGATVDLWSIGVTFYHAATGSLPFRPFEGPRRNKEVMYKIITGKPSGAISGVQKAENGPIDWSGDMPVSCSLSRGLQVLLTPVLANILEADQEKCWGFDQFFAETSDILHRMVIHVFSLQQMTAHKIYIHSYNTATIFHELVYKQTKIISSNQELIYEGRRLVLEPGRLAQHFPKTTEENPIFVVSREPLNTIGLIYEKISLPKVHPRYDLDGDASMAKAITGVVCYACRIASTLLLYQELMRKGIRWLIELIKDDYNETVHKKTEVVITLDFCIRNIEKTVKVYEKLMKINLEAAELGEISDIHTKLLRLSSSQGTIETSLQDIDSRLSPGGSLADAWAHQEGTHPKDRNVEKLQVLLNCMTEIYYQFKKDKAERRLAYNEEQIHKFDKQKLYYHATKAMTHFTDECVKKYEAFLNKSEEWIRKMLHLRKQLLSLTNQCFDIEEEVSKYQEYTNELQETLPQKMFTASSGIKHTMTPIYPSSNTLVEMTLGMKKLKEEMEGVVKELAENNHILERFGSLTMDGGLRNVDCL
Put plainly: ADP-Glo Kinase Assay, inhibition activity on TBK1. The assay is classed as biochemical. The procedure, abridged: (§1)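 Kinase activity measured with the ADP-Glo luminescent ADP-detection kit per manufacturer's protocol, using IKKε or TBK1 kinase enzyme systems. Reaction buffer: 40 mM Tris (pH 7.5), 20 mM MgCl2, 0.1 mg/mL BSA; luminescence read on a luminometer.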

In assay [2] the target is T2, IKKε (Homo sapiens, UniProt Q14164).
T2 construct: purchased Promega and/or Invitrogen V4158; PR8031B; V3991 (not assigned to the two kinases)
T2 sequence (Q14164 1-716): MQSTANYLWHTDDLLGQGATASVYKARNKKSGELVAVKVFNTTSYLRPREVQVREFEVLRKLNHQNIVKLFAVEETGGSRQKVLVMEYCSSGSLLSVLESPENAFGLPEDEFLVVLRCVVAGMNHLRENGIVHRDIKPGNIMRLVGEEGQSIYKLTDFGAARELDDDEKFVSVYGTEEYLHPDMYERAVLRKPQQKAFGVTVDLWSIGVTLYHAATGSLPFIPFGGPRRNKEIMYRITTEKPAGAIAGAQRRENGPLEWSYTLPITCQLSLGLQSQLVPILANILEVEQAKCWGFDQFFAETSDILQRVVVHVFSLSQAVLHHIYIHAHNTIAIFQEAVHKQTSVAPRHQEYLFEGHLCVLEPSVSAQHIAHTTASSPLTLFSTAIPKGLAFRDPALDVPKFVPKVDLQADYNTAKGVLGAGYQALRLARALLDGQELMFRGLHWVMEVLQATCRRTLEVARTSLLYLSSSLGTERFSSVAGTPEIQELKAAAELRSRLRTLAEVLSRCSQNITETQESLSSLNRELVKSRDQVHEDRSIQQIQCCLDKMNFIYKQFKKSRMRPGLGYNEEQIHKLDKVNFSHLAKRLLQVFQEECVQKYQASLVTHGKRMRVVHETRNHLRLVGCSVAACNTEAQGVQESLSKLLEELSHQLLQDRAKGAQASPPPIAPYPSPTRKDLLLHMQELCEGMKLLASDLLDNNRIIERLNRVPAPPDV
The assay is described as follows: ADP-Glo Kinase Assay, inhibition activity on IKKε. The class given is biochemical. Put shortly:
as §1

Structures are written as SMILES.

On to `CC(C)NC(=O)N1CCC(c2c[nH]c3ncc(-c4ccc(CN5CCN(C)CC5)s4)cc23)=CC1C` (centres unmarked) [Example 88, N-isopropyl-2-methyl-4-(5-(5-((4-methylpiperazin-1-yl)methyl)thiophen-2-yl)-1H-pyrrolo[2,3-b]pyridin-3-yl)-5,6-dihydropyridine-1(2H)-carboxamide], for which the IC50 in assay [1] came to 0.8 nM; in assay [2], 3.2 nM.
For `CC(C)NC(=O)N1CCC(c2c[nH]c3ncc(-c4ccc(C(=O)N5CCN(C)CC5)cc4)cc23)=CC1C` (centres unmarked) [Example 89, N-isopropyl-2-methyl-4-(5-(4-(4-methylpiperazine-1-carbonyl)phenyl)-1H-pyrrolo[2,3-b]pyridin-3-yl)-5,6-dihydropyridine-1(2H)-carboxamide], in that order: 2.8 nM and 3.3 nM.
In the case of `CC(C)NC(=O)N1CCC(c2c[nH]c3ncc(-c4ccc(CN5CCOCC5)cc4)cc23)=CC1C` (centres unmarked) [Example 90, N-isopropyl-2-methyl-4-(5-(4-(morpholinomethyl)phenyl)-1H-pyrrolo[2,3-b]pyridin-3-yl)-5,6-dihydropyridine-1(2H)-carboxamide], the IC50 in assay [1] was found to be 5.2 nM; in assay [2] it was 5.5 nM.
Consider `CCC(CC)NC(=O)N1CCC(c2c[nH]c3ncc(-c4ccc(CN5CCN(C)CC5)s4)cc23)=CC1C` (centres unmarked) [Example 91, 6-Methyl-4-(5-(5-((4-methylpiperazin-1-yl)methyl)thiophen-2-yl)-1H-pyrrolo[2,3-b]pyridin-3-yl)-N-(pentan-3-yl)-3,6-dihydropyridine-1(2H)-carboxamide], for which the IC50 in assay [1] is 46 nM; in assay [2], 180 nM.
For `CCC(CC)NC(=O)N1CCC(c2c[nH]c3ncc(-c4ccc(CN5CCOCC5)s4)cc23)=CC1C` (centres unmarked) [Example 92, 6-Methyl-4-(5-(5-(morpholinomethyl)thiophen-2-yl)-1H-pyrrolo[2,3-b]pyridin-3-yl)-N-(pentan-3-yl)-3,6-dihydropyridine-1(2H)-carboxamide] the same measures were 35 nM and 130 nM.
For `CC1C=C(c2c[nH]c3ncc(-c4ccc(CN5CCN(C(=O)OC(C)(C)C)CC5)s4)cc23)CCN1C(=O)NC1CC1` (centres unmarked) [Example 93, tert-Butyl 4-((5-(3-(1-(cyclopropylcarbamoyl)-6-methyl-1,2,3,6-tetrahydropyridin-4-yl)-1H-pyrrolo[2,3-b]pyridin-5-yl)thiophen-2-yl)methyl)piperazine-1-carboxylate], the results for the IC50 in assay [1] and in assay [2] were 18 nM and 48 nM, respectively.
Regarding `CC1C=C(c2c[nH]c3ncc(-c4ccc(C(=O)N5CCN(C)CC5)cc4)cc23)CCN1C(=O)NC1CC1` (centres unmarked) [Example 94, N-cyclopropyl-2-methyl-4-(5-(4-(4-methylpiperazine-1-carbonyl)phenyl)-1H-pyrrolo[2,3-b]pyridin-3-yl)-5,6-dihydropyridine-1(2H)-carboxamide], the IC50 in assay [1] was found to be 3.9 nM; in assay [2], 10 nM.
Regarding `CC1C=C(c2c[nH]c3ncc(-c4ccc(CN5CCN(C)CC5)cc4)cc23)CCN1C(=O)NC1CC1` (centres unmarked) [Example 95, N-cyclopropyl-2-methyl-4-(5-(4-((4-methylpiperazin-1-yl)methyl)phenyl)-1H-pyrrolo[2,3-b]pyridin-3-yl)-5,6-dihydropyridine-1(2H)-carboxamide], the IC50 turned out to be 7.4 nM in assay [1] and 14 nM in assay [2].
With `CC1C=C(c2c[nH]c3ncc(-c4ccc(CN5CCN(C)CC5)s4)cc23)CCN1C(=O)NC1CC1` (centres unmarked) [Example 96, N-cyclopropyl-2-methyl-4-(5-(5-((4-methylpiperazin-1-yl)methyl)thiophen-2-yl)-1H-pyrrolo[2,3-b]pyridin-3-yl)-5,6-dihydropyridine-1(2H)-carboxamide], the IC50 stood at 3.1 nM in assay [1] and 6.5 nM in assay [2].
For `CC1C=C(c2c[nH]c3ncc(-c4ccc(CN5CCOCC5)s4)cc23)CCN1C(=O)NC1CC1` (centres unmarked) [Example 97, N-cyclopropyl-2-methyl-4-(5-(5-(morpholinomethyl)thiophen-2-yl)-1H-pyrrolo[2,3-b]pyridin-3-yl)-5,6-dihydropyridine-1(2H)-carboxamide], in that order: 1.7 nM and 2.5 nM.

Values taken from patent US10239873B2, “7-azaindole or 4,7-diazaindole derivatives as IKKϵ epsilon and TBK1 inhibitor and pharmaceutical composition comprising same” (GREEN CROSS CORPORATION, priority 2015, dated 2019).
